Reference: patent US6358885B1, “Substituted phenylheterocyclic herbicides” (Mississippi State University, priority 1992, dated 2002)

Tests used:
barnyardgrass = assay: Test B preemergence/postemergence greenhouse plant response rating 0 to 10; assay type: in vivo, Echinochloa crus-galli; conditions: 0 to 10 scale
Outline: (§1)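 Test chemicals, dissolved in a non-phytotoxic solvent, were applied to soil at planting and, at the same time, over foliage of seedlings at the one to four leaf stage.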

crabgrass = assay: Test C preemergence/postemergence greenhouse plant response rating 0 to 100; assay type: in vivo, Digitaria sanguinalis; conditions: POSTEMERGENCE; for Plant response rating, Crabgrass: 0 to 100 scale
Outline: (§2)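 Compounds in non-phytotoxic solvent went onto sandy loam before emergence (seeded one day earlier) or onto plants at the one-to-four leaf stage. Duck salad was treated via flood water (~2.5 cm, maintained) over silt loam.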

cotton = assay: Test B preemergence/postemergence greenhouse plant response rating 0 to 10; assay type: in vivo, Gossypium hirsutum; conditions: 0 to 10 scale
Outline: as §1

velvetleaf = assay: as above; assay type: in vivo, Abutilon theophrasti; conditions: 0 to 10 scale
Outline: as §1

giant foxtail = assay: Test C preemergence/postemergence greenhouse plant response rating 0 to 100; assay type: in vivo, Setaria faberii; conditions: POSTEMERGENCE; for Plant response rating, Giant foxtail: 0 to 100 scale
Outline: as §2

wheat [1] = assay: Test B preemergence/postemergence greenhouse plant response rating 0 to 10; assay type: in vivo, Triticum aestivum; conditions: 0 to 10 scale
Outline: as §1

morningglory = assay: as above; assay type: in vivo, Ipomoea hederacea; conditions: 0 to 10 scale
Outline: as §1

rape = assay: Test C preemergence/postemergence greenhouse plant response rating 0 to 100; assay type: in vivo, Brassica napus; conditions: POSTEMERGENCE; for Plant response rating, Rape: 0 to 100 scale
Outline: as §2

wheat [2] = assay: as above; assay type: in vivo, Triticum aestivum; conditions: POSTEMERGENCE; for Plant response rating, Wheat: 0 to 100 scale
Outline: as §2

speedwell = assay: as above; assay type: in vivo, Veronica persica; conditions: POSTEMERGENCE
Outline: as §2

wild oat = assay: as above; assay type: in vivo, Avena fatua; conditions: POSTEMERGENCE; for Plant response rating, Wild oat: 0 to 100 scale
Outline: as §2

bedstraw = assay: as above; assay type: in vivo, Galium aparine; conditions: POSTEMERGENCE; for Plant response rating, Bedstraw: 0 to 100 scale
Outline: as §2

blackgrass = assay: as above; assay type: in vivo, Alopecurus myosuroides; conditions: POSTEMERGENCE; for Plant response rating, Blackgrass: 0 to 100 scale
Outline: as §2

C#CC(C)N1C(=O)COc2cc(F)c(-c3nn4c(c3Cl)CCCC4)cc21 (centres unmarked) [Compound 50]
Plant response rating, Barnyardgrass (barnyardgrass; POSTEMERGENCE, Rate 10 g/ha): 3
Plant response rating, Barnyardgrass (barnyardgrass; POSTEMERGENCE, Rate 50 g/ha): 4
Plant response rating, Barnyardgrass (barnyardgrass; PREEMERGENCE, Rate 10 g/ha): 0
Plant response rating, Barnyardgrass (barnyardgrass; PREEMERGENCE, Rate 50 g/ha): 0
Plant response rating, Crabgrass (crabgrass; 62 g/ha): 40
Plant response rating, Crabgrass (crabgrass; 250 g/ha): 50
Plant response rating (0 to 100), Crabgrass (crabgrass; Rate 1 g/ha): 10
Plant response rating (0 to 100), Crabgrass (crabgrass; Rate 4 g/ha): 20
Plant response rating (0 to 100), Crabgrass (crabgrass; Rate 16 g/ha): 20
Plant response rating, Cotton (cotton; POSTEMERGENCE, Rate 10 g/ha): 9
Plant response rating, Cotton (cotton; POSTEMERGENCE, Rate 50 g/ha): 10
Plant response rating, Cotton (cotton; PREEMERGENCE, Rate 10 g/ha): 0
Plant response rating, Cotton (cotton; PREEMERGENCE, Rate 50 g/ha): 0
Plant response rating, Velvetleaf (velvetleaf; POSTEMERGENCE, Rate 10 g/ha): 9
Plant response rating, Velvetleaf (velvetleaf; POSTEMERGENCE, Rate 50 g/ha): 10
Plant response rating, Velvetleaf (velvetleaf; PREEMERGENCE, Rate 50 g/ha): 0
Plant response rating, Giant foxtail (giant foxtail; 62 g/ha): 50
Plant response rating, Giant foxtail (giant foxtail; 250 g/ha): 50
Plant response rating (0 to 100), Giant foxtail (giant foxtail; Rate 1 g/ha): 20
Plant response rating (0 to 100), Giant foxtail (giant foxtail; Rate 4 g/ha): 30
Plant response rating (0 to 100), Giant foxtail (giant foxtail; Rate 16 g/ha): 50
Plant response rating, Wheat (wheat [1]; POSTEMERGENCE, Rate 10 g/ha): 4
Plant response rating, Wheat (wheat [1]; POSTEMERGENCE, Rate 50 g/ha): 4
Plant response rating, Wheat (wheat [1]; PREEMERGENCE, Rate 50 g/ha): 0
Plant response rating, Morningglory (morningglory; POSTEMERGENCE, Rate 10 g/ha): 10
Plant response rating, Morningglory (morningglory; POSTEMERGENCE, Rate 50 g/ha): 10
Plant response rating, Morningglory (morningglory; PREEMERGENCE, Rate 50 g/ha): 2
Plant response rating, Rape (rape; 62 g/ha): 100
Plant response rating, Rape (rape; 250 g/ha): 100
Plant response rating (0 to 100), Rape (rape; Rate 1 g/ha): 0
Plant response rating (0 to 100), Rape (rape; Rate 4 g/ha): 0
Plant response rating (0 to 100), Rape (rape; Rate 16 g/ha): 50
Plant response rating, Wheat (wheat [2]; 62 g/ha): 50
Plant response rating, Wheat (wheat [2]; 250 g/ha): 60
Plant response rating (0 to 100), Wheat (wheat [2]; Rate 1 g/ha): 0
Plant response rating (0 to 100), Wheat (wheat [2]; Rate 4 g/ha): 20
Plant response rating (0 to 100), Wheat (wheat [2]; Rate 16 g/ha): 30
Plant response rating Speedwell (speedwell; 62 g/ha, 0 to 100 scale): 100
Plant response rating (0 to 100), Speedwell (speedwell; Rate 1 g/ha): 0
Plant response rating (0 to 100), Speedwell (speedwell; Rate 4 g/ha): 70
Plant response rating (0 to 100), Speedwell (speedwell; Rate 16 g/ha): 100
Plant response rating, Wild oat (wild oat; 62 g/ha): 30
Plant response rating, Wild oat (wild oat; 250 g/ha): 50
Plant response rating (0 to 100), Wild oat (wild oat; Rate 1 g/ha): 10
Plant response rating (0 to 100), Wild oat (wild oat; Rate 4 g/ha): 20
Plant response rating (0 to 100), Wild oat (wild oat; Rate 16 g/ha): 20
Plant response rating, Bedstraw (bedstraw; 62 g/ha): 100
Plant response rating, Bedstraw (bedstraw; 250 g/ha): 100
Plant response rating (0 to 100), Bedstraw (bedstraw; Rate 1 g/ha): 10
Plant response rating (0 to 100), Bedstraw (bedstraw; Rate 4 g/ha): 20
Plant response rating (0 to 100), Bedstraw (bedstraw; Rate 16 g/ha): 60
Plant response rating, Blackgrass (blackgrass; 62 g/ha): 60
Plant response rating, Blackgrass (blackgrass; 250 g/ha): 60
Plant response rating (0 to 100), Blackgrass (blackgrass; Rate 1 g/ha): 20
Plant response rating (0 to 100), Blackgrass (blackgrass; Rate 4 g/ha): 30
Plant response rating (0 to 100), Blackgrass (blackgrass; Rate 16 g/ha): 50
